Test results reported in PMC5418359, “Topical Ophthalmic Formulation of Trichostatin A and SurR9-C84A for Quick Recovery Post-alkali Burn of Corneal Haze” (Frontiers in Pharmacology, 2017).

Experiments:
[1] = test system: expression of survivin, TGF-beta-1, alpha-SMA and collagen IV in alkali burnt cornea; experiment: Ex vivo RT-PCR dose ranging in alkali burnt rat eyes; details: 1 M NaOH 1 min, treatment 40 min
Experimental: This procedure was carried out using a previously published protocol ([Lin et al., 2016]). Rat eyes were harvested from humanely killed rats and washed with HBSS. Rat eyes were further incubated with 1 M NaOH for 1 min and then treated with TSA ([…]), SurR9-C84A (0.5, 1.2, and 2.5 mg/kg), pSur/As-Sur ([…]) and empty plasmid (200, 400, and 800 μg/kg) for 40 min. Untreated eyes were maintained as controls. After treatment period, eyes were washed with PBS and total RNA was extracted using the TRIzol® reagent (cat# 15596-026, Thermo Fisher Scientific, Waltham, MA, USA), and complementary DNA (cDNA) was synthesized from RNA using the RevertAid H Minus First Strand cDNA Synthesis Kit (cat# K1631, Thermo Fisher Scientific). Expression of survivin, TGF-beta-1, alpha-SMA and collagen IV was determined by polymerase chain reaction (PCR).

cornea = experiment: Mean opacity and mean permeability measurements, rat alkali burn model; type: in vivo; details: 1 M NaOH 1 min, topical treatment 40 min
Experimental: The mean in vivo scores was determined using the mean opacity measurements. The rat eyes were excised carefully and carried to the laboratory in HBSS supplemented with penicillin/streptomycin. The measurement of mean opacity was carried out using an opacitometer which measures the transmission of light through the center of each mounted cornea. The mean permeability score was determined by adding a fluorescent (rhodamine solution) on the anterior side of the holder and the corneas were incubated in a horizontal position for 90 min at 32°C. The medium in the posterior chamber was removed and added to 96 well plates and the OD at 490 nm was read. The readings obtained at OD490 were used to determine the permeability of each treatment with respect to the change in the untreated corneas.

[2] = test system: conjunctival layer and corneal matrix; experiment: H&E histology of corneal segments, rat alkali burn model; type: in vivo; details: 1 M NaOH 1 min, topical treatment 40 min
Experimental: After the completion of the study, all tissues that required to be examined (eyes, brain, kidneys, liver, spleen, heart and lungs) were isolated. The cornea was carefully separated from the eye without damaging it and washed using phosphate buffer saline (PBS). Tissues were fixed using 4% paraformaldehyde (PF) overnight at 4°C and then washed in PBS. The tissue segments were dehydrated in graded ethanol, embedded in paraffin and 5–7 μm thick sections were cut using a microtome. Sections were collected on poly-lysine coated slides using the Leica cryostat and were fixed immediately in ice-cold acetone. All the sections were stained for haematoxylin–eosin (H&E) for critical analysis.

corneal lysate = experiment: Multianalyte ELISA of inflammatory cytokines in corneal lysate; type: in vivo, rat
Experimental: The cytokine profiling was performed using the Rat Inflammatory Cytokines & Chemokines Multi-Analyte ELISArray Kit (QIAGEN, USA). Briefly, serial dilutions of the Antigen Standard and the experimental samples were prepared. 50 μL of Assay Buffer was added to each well of the 8-well ELISA strips. Fifty microliters samples and/or standards were added to the appropriate wells of the ELISA strips and incubated for 2 h at room temperature. The ELISA strips were further washed using 350 μL 1 × Washing Buffer thrice. Hundred microliters of Detection Antibody solution was added to the ELISA strips and incubated for 1 h at room temperature. ELISA wells were washed as mentioned above. Hundred microliters of the Avidin–HRP solution was added to all wells and incubated for 30 min at room temperature. ELISA wells were washed as mentioned above. Hundred microliters of Development Solution was added to each well and incubated for 15 min at room temperature in the dark. Hundred microliters of Stop Solution was added to each well. The color changed from blue to yellow. The absorbance at 450 nm was measured within 30 min of stopping the reaction. The estimation of pg/mL of cytokines was performed using the values obtained from antigen standards and a graph was plotted for the cytokine expression with the effect of treatments.

[3] = Ocular and systemic pharmacokinetics of TSA after topical application; details: for Concentration of TSA in Aqueous humor / Concentration of TSA in Conjunctiva / Concentration of TSA in Cornea / Concentration of TSA in Plasma / Concentration of TSA in Tear fluid: mean ±SD; for AUC0-8 / AUC0-∞ / Cmax / Tmax / t1/2: rat, topical application
Experimental: Pharmacokinetic analysis was done using the HPLC System for the levels of TSA in eye tissue and plasma samples was measured using PK methods. PK estimated using standard measurements for maximum concentration (Cmax), time to reach Cmax (Tmax), area under the concentration–time curve (AUC), elimination rate constant (K), elimination half-life (t1/2), apparent clearance (CL/F), apparent volume of distribution (Vd/F).

Blood analysis = type: in vivo; design: HCT / MCH / WBC / RBC / HGB / MCHC: unit not given here; details: rat blood
Experimental: The analysis of blood samples was performed directly using the ABX Micros ES 60 (Horiba Medicals). The parameters analyzed included the number of red blood cells (RBC’s), white blood cells (WBC’s), platelets and hemoglobin content. Briefly, 20 μL of the blood sample was acquired in the instrument and the readings were recorded.

rat corneal tissues = details: confocal microscopy
[4] = test system: rat eyes post-alkali burn
[5] = 2 min after topical application in eye
[6] = 10 min after topical application in eye
[7] = 30 min after topical application in eye

CC(/C=C/C(=O)NO)=C\[C@@H](C)C(=O)c1ccc(N(C)C)cc1 [TSA, trichostatin A]
most effective dosage in inhibiting expression of survivin, alpha-SMA, TGF-beta-1 and collagen IV [1]: 0.02 mg/kg | Mean in vitro score (cornea): 0.20 ± 0.5^∗ | Mean opacity measurement (cornea): 0.5 ± 0.2 ^∗ | Predicted irritation potential (cornea): No irritation | corneal tissue integrity (conjunctival layer, corneal matrix), H&E [2]: recovery of the conjunctival layer | GMCSF expression, ELISA (corneal lysate): downregulated effectively | IFN-gamma expression, ELISA (corneal lysate): significant downregulation | IL-1 beta expression, ELISA (corneal lysate): downregulation | IL-2 expression, ELISA (corneal lysate): significantly increased | IL-4 expression, ELISA (corneal lysate): increase | IL-6 expression, ELISA (corneal lysate): downregulated effectively | IL-12 expression, ELISA (corneal lysate): further downregulation | IL-13 expression, ELISA (corneal lysate): downregulated effectively | Rantes expression, ELISA (corneal lysate): significantly downregulated | TNF-alpha expression, ELISA (corneal lysate): downregulated effectively | Concentration of TSA in Aqueous humor [3, 5]: 119.43 ± 37.92 ng/mL | Concentration of TSA in Conjunctiva [3, 5]: 267.88 ± 75.51 µg/g | Concentration of TSA in Cornea [3, 5]: 216.83 ± 78.05 µg/g | Concentration of TSA in Plasma [3, 5]: 103.61 ± 28.37 ng/mL | Concentration of TSA in Tear fluid [3, 5]: 333.42 ± 69.72 µg/g | Concentration of TSA in Aqueous humor [3, 6]: 112.94 ± 15.10 ng/mL | Concentration of TSA in Conjunctiva [3, 6]: 261.29 ± 66.47 µg/g | Concentration of TSA in Cornea [3, 6]: 291.02 ± 109.25 µg/g | Concentration of TSA in Plasma [3, 6]: 263.87 ± 80.96 ng/mL | Concentration of TSA in Tear fluid [3, 6]: 208.93 ± 30.82 µg/g | Concentration of TSA in Conjunctiva [3, 7]: 178.23 ± 35.22 µg/g | Concentration of TSA in Cornea [3, 7]: 762.86 ± 385.68 µg/g | Concentration of TSA in Plasma [3, 7]: 109.16 ± 33.00 ng/mL | Concentration of TSA in Tear fluid [3, 7]: 154.98 ± 73.25 µg/g | AUC0-8 ([3]; Aqueous humor): 7568 µg·h/g | AUC0-∞ ([3]; Aqueous humor): 7689 µg·h/g | Cmax ([3]; Aqueous humor): 11,046 ± 2734 μg/g | Tmax ([3]; Aqueous humor): 20 min | t1/2 ([3]; Aqueous humor): 90 min | AUC0-8 ([3]; Conjunctiva): 53.4 µg·h/g | Cmax ([3]; Conjunctiva): 26.26 ± 7.19 µg/g | Tmax ([3]; Conjunctiva): 5 min | t1/2 ([3]; Conjunctiva): 252 min | AUC0-8 ([3]; Cornea): 45.5 µg·h/g | AUC0-∞ ([3]; Cornea): 55.5 µg·h/g | Cmax ([3]; Cornea): 44.67 ± 12.91 µg/g | Tmax ([3]; Cornea): 5 min | t1/2 ([3]; Cornea): 210 min | AUC0-8 ([3]; Plasma): 65.5 µg·h/g | AUC0-∞ ([3]; Plasma): 68.4 µg·h/g | Cmax ([3]; Plasma): 160.3 ± 61.0 µg/g | Tmax ([3]; Plasma): 10 min | t1/2 ([3]; Plasma): 90 min | AUC0-8 ([3]; Tear fluid): 678.5 µg·h/g | AUC0-∞ ([3]; Tear fluid): 768.5 µg·h/g | Cmax ([3]; Tear fluid): 2,987 ± 1814 μg/g | Tmax ([3]; Tear fluid): 5 min | t1/2 ([3]; Tear fluid): 138 min | HCT (Blood analysis): increased the HCT count to normal range | HGB (Blood analysis): 17.61 ± 1.41 | MCH (Blood analysis): reduced to normal range | MCHC (Blood analysis): 38.15 ± 1.63 | PLT (Blood analysis): 256.33 ± 117 | RBC (Blood analysis): 8.15 ± 0.61 | WBC (Blood analysis): 5.48 ± 2.06 | MCV (Blood analysis; in fL (unit assumed)): 56.66 ± 1.86 | HCT (Blood analysis; listed as NaOH–TSA): 46.2 ± 4.14 | MCH (Blood analysis; listed as NaOH–TSA): 21.63 ± 1.01 | alpha-SMA expression, immunofluorescence (rat corneal tissues): failed to downregulate it effectively | collagen type IV expression, immunofluorescence (rat corneal tissues): most effective in increasing | enhancement of Fibronectin-1 expression, western blot (rat corneal lysates; post-NaOH insult): 1.97 fold | increase in TGF-beta-1 expression, western blot (rat corneal lysates; post-NaOH insult): 1.45 fold | decrease/downregulation of collagen type IV, western blot (rat corneal lysates; rat, in vivo, iv): 2.8 fold | Collagen type IV gene expression, qRT-PCR [4]: efficiently downregulated | Fibronectin-1 gene expression, qRT-PCR [4]: significantly enhanced | IL-1 beta gene expression, qRT-PCR [4]: increase | IL-6 gene expression, qRT-PCR [4]: significantly lowered | MMP-2 gene expression, qRT-PCR [4]: downregulating | TGF-beta-1 gene expression, qRT-PCR [4]: further increase | TNF-alpha gene expression, qRT-PCR [4]: significantly lowered | alpha-SMA gene expression, qRT-PCR [4]: significant increase | alpha-integrin 5 gene expression, qRT-PCR [4]: significant increase
